In patent publication US6652890B2, “Tea catechins as cancer specific proliferation inhibitors” (Purdue Research Foundation, priority 1999, dated 2003):
pEC50, pIC50: −log10 of the molar value. “Also recorded” adds a separate entry of the source. Like-named read-outs stand apart in the source and are kept apart here.

What was measured:
[1] = system: HeLa (human cervical carcinoma) cells; test: Effect on intact cells in culture (growth, morphology, DAPI); assay type: cell-based; conditions: for pIC50: read-out: EGCg concentration for 50% growth arrest, FIG. 8
Description: HeLa (ATCC CCL2) cells were grown in 175 cm^2 flasks in Minimal Essential Medium (Gibco), pH 7.4, at 37° C. with 10% bovine calf serum (heat-inactivated), plus 50 mg/l gentamycin sulfate (Sigma). […] The coverslips were rinsed and the cells fixed in methanol followed by addition of fluorescent dye 4′,6-diamidino-2-phenylindole (DAPI) as described (Wolvetang et al., 1994, FEBS Lett. 339:40-44). Cells were observed and photographed at a primary magnification of 400×. HeLa (ATCC CCL2) cells were grown in 150 cm^2 flasks in Minimal Essential Medium (Gibco), pH 7.4, at 37° C. with 10% bovine calf serum (heat-inactivated), plus 50 mg/l gentamicin sulfate (Sigma).

tNOX = test: Inhibition of tNOX activity of sera pooled from patients with cancer; assay type: biochemical, human
Description: NADH oxidase activity was determined as the disappearance of NADH measured at 340 nm in a reaction mixture containing 25 mM Tris-Mes buffer (pH 7.2), 1 mM KCN to inhibit low levels of mitochondrial oxidase activity, and […] at 37° C. with stirring. Activity was measured using a Hitachi U3210 or SLM Aminco DW2000 spectrophotometer with continuous recording over two intervals of 5 min each. A millimolar extinction coefficient of 6.22 was used to determine specific activity.
Authentic EGCg (Sigma) was used as the standard.
All chemicals were from Sigma (St. Louis, Mo.) unless otherwise specified. EGF was from mouse, culture grade, from Upstate Biotechnology Inc. (Lake Placid, N.Y.). Tea infusions were prepared by sequential steeping of ca. 2-g bags of tea (Lipton) in 10 ml of water for 10 min each. At the end of the infusion, bags were pressed to remove liquid.

[2] = 10^−6 M EGCg twice daily for 96 h

## (−) - epigallocatechin gallate [EGCg]
[1]; 10 μM EGCg added at t=0, 96 h, FIG. 4
  Fate of treated cells: did not recover and died; also recorded: stopped growing and died
[1]; [2]
  Reduction of cell diameter: about 25%
  Reduction of cell number: about 25%
  Reduction of cell volume: 50%
[1]; 10^−6 M EGCg, 72 h
  Response of the cell line: no response
[1]; 10 or 50 μM EGCg, 96 h, FIG. 5
  Condensed chromatin (DAPI staining): characteristic of apoptosis
[1]; EGCg
  Growth of HeLa cells: almost completely inhibited
[1]; 72 h, in the absence of EC
  pIC50: 5.00
[1]; 72 h, in the presence of 10^−4 M EC
  pIC50: 7.00
tNOX
  pEC50: 5.70
tNOX; EGCg content at the EC50
  EGCg: 1 µg/mL
